In ChEMBL document CHEMBL4270505, “Towards antibody-drug conjugates and prodrug strategies with extracellular stimuli-responsive drug delivery in the tumor microenvironment for cancer therapy” (Eur J Med Chem, 2017):

What was measured:
[1] = Antitumor activity against human CL1-5 cells xenografted in mouse assessed as disease cure rate; assay type: functional
[2] = tested on: HT-29; assay: Potency index, ratio of IC50 for paclitaxel to IC50 for test compound for cytotoxicity in human HT-29 cells; assay type: functional
[3] = tested on: HT-29; assay: Cytotoxicity in human HT-29 cells assessed as reduction in cell viability; assay type: functional, cell-based

Row | Compound | Activity [1] | Ratio IC50 [2] | IC50 [3] [nM]
1 | Nc1cccc2nc3c(cc12)Cn1c-3cc2c(c1=O)COC(=O)[C@]2(O)CC(=O)OCc1ccc(O[C@@H]2O[C@H](C(=O)O)[C@@H](O)[C@H](O)[C@H]2O)c([N+](=O)[O-])c1 | 70 - 85% | – | –
2 | CC(=O)O[C@H]1C(=O)[C@@]2(C)[C@H]([C@H](OC(=O)c3ccccc3)[C@]3(O)C[C@H](OC(=O)[C@H](OC(=O)OCCN(C)C(=O)OCc4ccc(O[C@@H]5O[C@H](C(=O)O)[C@@H](O)[C@H](O)[C@H]5O)cc4)[C@@H](NC(=O)c4ccccc4)c4ccccc4)C(C)=C1C3(C)C)[C@]1(OC(C)=O)CO[C@@H]1C[C@@H]2O | – | 164 | 26
